What all share (type): cell-based
In test [1] the test system is Pseudomonas aeruginosa (ATCC 9027). Particulars: for biocidal effect on P. aeruginosa (in words): 100 ug/mL in water; for average cfu/mL: P. aeruginosa; for lowest concentration giving complete kill of P. aeruginosa: Experiment 3, tested 100 to 1 ug/mL in water. As to the method: (§1) Peptides were tested using a conventional Disinfection Efficacy antimicrobial assay (ISO 14729), commonly used in evaluating biocidal efficacy of preservatives for use in contact lens care solutions. Briefly, a known concentration of organisms are inoculated into the test solution, and allowed to incubate for a given amount of time, after which they are neutralized to inactivate the preservative. Samples are serially diluted and plated in duplicate onto petri plates onto which growth medium is poured. The plates are incubated at 35° C. (bacteria) or 25° C. (yeast and molds) for 48 hours. The average number of colony forming units is determined on countable plates (the dilution at which between 30 to 300 cfu/plate are observed, except when colonies are observed only on the −1 dilution plates). The log reduction resulting from exposure to the test solution is calculated based on the growth of positive controls plated simultaneously. Recovery controls, to confirm that the test solution is neutralized, and viability controls are also plated.
(§2) Method: The Disinfection Efficacy test was used with the following organisms: Staphylococcus aureus (ATCC 6538), Pseudomonas aeruginosa (ATCC 9027), Serratia marcesens (ATCC 13880), Candida albicans (ATCC 10231), and Fusarium solani (ATCC 36031). The peptides were diluted in water at a concentration of 100 ug/mL (adjusted for purity). Organism cultures were prepared to result in an inoculum concentration between 10^7 and 10^8 cfu/mL. The test solutions were inoculated for a 1 hour and a 3 hour exposure period, neutralized with DEB with 0.1% SLS added, and plated in duplicate.
(§3) Method: The Disinfection Efficacy test was used as in experiment 2 using Staphylococcus aureus and Pseudomonas aeruginosa. The peptides were diluted in water at concentrations of 100, 33.3, 10, 3.33, and 1 ug/mL. The test solutions were inoculated for 1 hour, neutralized, and plated in duplicate.

The subject of test [2] is Staphylococcus aureus (ATCC 6538). Particulars: for biocidal effect on S. aureus (in words): 100 ug/mL in water; for average cfu/mL: S. aureus; for concentration giving complete kill of S. aureus: tested 100 to 1 ug/mL in water. As to the method:
as §1, §2, §3

For test [3], the system named is Serratia marcesens (ATCC 13880). The following applies: 1 hour exposure; for biocidal effect on S. marcescens (in words): 100 ug/mL in water; for average cfu/mL: S. marcescens, peptide 100 ug/mL in water. As to the method: as §1, §2
Test [4] concerns Fusarium solani (ATCC 36031). Particulars: 1 hour exposure; for biocidal effect on F. solani (in words): 100 ug/mL in water; for average cfu/mL: F. solani, peptide 100 ug/mL in water. As to the method: as §1, §2
The subject of test [5] is Candida albicans (ATCC 10231). Particulars: 1 hour exposure; for biocidal effect on C. albicans (in words): 100 ug/mL in water; for average cfu/mL: C. albicans, peptide 100 ug/mL in water. As to the method: as §1
Method: Candida albicans (ATCC 10231) stock cultures were incubated and prepared to result in cell suspensions containing between 10^7 and 10^8 cfu/mL. The Disinfection Efficacy test, as described above, was used, with the following modification: Since the standard Dey-Engley broth used to neutralize preservatives was not necessarily expected to neutralize the peptide, 0.1% sodium laurel sulfate (SLS) was added to the neutralization solution. Controls confirmed that this was effective in neutralizing the peptide test solution.
as §2

[6] abbreviates: peptide 100 ug/mL in water, 1 hour exposure.
[7] abbreviates: T = 1 hr, Conc. 1 μg/mL in water.
[8] abbreviates: T = 1 hr, Conc. 3.33 μg/mL in water.
The mark [9] stands for this setting: T = 1 hr, Conc. 10 μg/mL in water.
Setting [10] is: T = 1 hr, Conc. 33 μg/mL in water.
[11] abbreviates: T = 1 hr, Conc. 100 μg/mL in water.

Read-outs that look alike come from different tables or passages of the source. Non-standard residues stand in square brackets, D forms with d. Residues, ends and D or L forms follow the SMILES beside them. No end group written: not given here.

In the case of `C[C@@H](N)C(=O)N[C@H](CCCCN)C(=O)N[C@H](CCCNC(=N)N)C(=O)N[C@H](Cc1c[nH]cn1)C(=O)N[C@H](Cc1c[nH]cn1)C(=O)NCC(=O)N[C@H](Cc1ccc(O)cc1)C(=O)N[C@H](CCCCN)C(=O)N[C@H](CCCNC(=N)N)C(=O)N[C@H](CCCCN)C(=O)N[C@H](Cc1ccccc1)C(=O)N[C@H](Cc1c[nH]cn1)C(N)=O` [P113D] (H-[dA][dK][dR][dH][dH]G[dY][dK][dR][dK][dF][dH]-NH2; N-terminus and C-terminus assumed), in test [1] (1 hour exposure), the “biocidal effect on P. aeruginosa (in words)” value is “effective”. For the same compound, the “average cfu/mL” value is 2.00E+01 cfu/mL in test [1] (setting [6]); 4.70E+05 cfu/mL in test [2] (setting [6]); 2.80E+05 cfu/mL in test [3]; 6.40E+03 cfu/mL in test [4]; 3.30E+03 cfu/mL in test [5]. Moreover, in test [2] (1 hour exposure), the “biocidal effect on S. aureus (in words)” value is recorded as “no effect”. Moreover, the “biocidal effect on S. marcescens (in words)” value in test [3] is reported as “no effect”. The “biocidal effect on F. solani (in words)” value in test [4] is recorded as “effective”. For the same compound, the “biocidal effect on C. albicans (in words)” value in test [5] is listed as “effective”.

With AKRHHGYKRKFH-NH2 [P-113], in test [1] (1 hour exposure), the “biocidal effect on P. aeruginosa (in words)” value is recorded as “effective”. Moreover, the “lowest concentration giving complete kill of P. aeruginosa” value in test [1] (1 hour exposure) stood at 3.33 µg/mL. Further, the “average cfu/mL” value in test [1] (setting [7]) is on record as 3.90E+02 cfu/mL; in test [1] (setting [8]), 5.00E+00 cfu/mL; in test [1] (setting [9]), 1.50E+01 cfu/mL; in test [1] (setting [10]), 0.00E+00 cfu/mL; in test [1] (setting [11]) it was 0.00E+00 cfu/mL; in test [1] (setting [6]), 6.00E+01 cfu/mL. The “average cfu/mL” value turned out to be 5.95E+04 cfu/mL in test [2] (setting [7]); 1.44E+05 cfu/mL in test [2] (setting [8]); 2.02E+05 cfu/mL in test [2] (setting [9]); 3.40E+05 cfu/mL in test [2] (setting [10]); 3.80E+05 cfu/mL in test [2] (setting [11]); 6.10E+05 cfu/mL in test [2] (setting [6]). The “average cfu/mL” value worked out at 4.00E+05 cfu/mL in test [3], 6.00E+03 cfu/mL in test [4] and 5.51E+03 cfu/mL in test [5]. Further, the “biocidal effect on S. aureus (in words)” value in test [2] (1 hour exposure) is listed as “no effect”. For the same compound, in test [2] (Experiment 3, 1 hour exposure, 100 to 1 ug/mL in water), the “effectiveness against S. aureus (in words)” value was “not effective”. In test [3], the “biocidal effect on S. marcescens (in words)” value was “no effect”. Further, the “biocidal effect on F. solani (in words)” value in test [4] is listed as “effective”. Further, the “biocidal effect on C. albicans (in words)” value in test [5] was “effective”.

In the case of FAKKFAKKFKKFAKKFAKFAFAF [D2A21], the “lowest concentration giving complete kill of P. aeruginosa” value in test [1] (1 hour exposure) was determined as 1 µg/mL. Further, the “average cfu/mL” value in test [1] (setting [7]), in test [1] (setting [8]), in test [1] (setting [9]), in test [1] (setting [10]), in test [1] (setting [11]) and in test [1] (setting [6]) was 0.00E+00 cfu/mL throughout. For the same compound, the “average cfu/mL” value in test [2] (setting [7]) is reported as 1.12E+03 cfu/mL; in test [2] (setting [8]), 0.00E+00 cfu/mL; in test [2] (setting [9]) it was 1.00E+01 cfu/mL; in test [2] (setting [10]), 0.00E+00 cfu/mL; in test [2] (setting [11]), 0.00E+00 cfu/mL; in test [2] (setting [6]) it was 0.00E+00 cfu/mL. Further, the “average cfu/mL” value in test [3], in test [4] and in test [5] was 0.00E+00 cfu/mL throughout. Also, the “concentration giving complete kill of S. aureus” value in test [2] (Experiment 3, 1 hour exposure) came out at 3.33 µg/mL.

In the case of FKLRAKIKVRLRAKIKL [D4E1], the “lowest concentration giving complete kill of P. aeruginosa” value in test [1] (1 hour exposure) amounted to 1 µg/mL. The “average cfu/mL” value is 1.00E+01 cfu/mL in test [1] (setting [7]); 0.00E+00 cfu/mL in test [1] (setting [8]); 0.00E+00 cfu/mL in test [1] (setting [9]); 5.00E+00 cfu/mL in test [1] (setting [10]); 0.00E+00 cfu/mL in test [1] (setting [11]); 0.00E+00 cfu/mL in test [1] (setting [6]). Besides, the “average cfu/mL” value in test [2] (setting [7]) is recorded as 5.00E+00 cfu/mL; in test [2] (setting [8]) it was 0.00E+00 cfu/mL; in test [2] (setting [9]) it was 0.00E+00 cfu/mL; in test [2] (setting [10]) it was 0.00E+00 cfu/mL; in test [2] (setting [11]), 0.00E+00 cfu/mL; in test [2] (setting [6]) it was 0.00E+00 cfu/mL. Moreover, the “average cfu/mL” value in test [3], in test [4] and in test [5] was 0.00E+00 cfu/mL each time. Further, the “concentration giving complete kill of S. aureus” value in test [2] (Experiment 3, 1 hour exposure) came out at 1 µg/mL.

For the origin of these results see patent publication US20110212885A1, “OPHTHALMIC AND CONTACT LENS SOLUTIONS CONTAINING PEPTIDES AS PRESERVATIVE” (priority 2003, published 2011).
